Assay results: patent US9951068B2 (Proximagen Limited, priority 2013, dated 2018)
pIC50: −log10 of the molar value. Where a name gives a salt, the structure may show the parent alone.

molecular target: human ether a go-go related gene (hERG) K+ channel (Homo sapiens (Human), UniProt Q12809); experiment: hERG assay, IonWorks patch clamp electrophysiology; format: cell-based; conditions: Chinese Hamster Lung cell line stably expressing hERG; max assay concentration 11 uM
Protocol: Compounds of the invention were tested for inhibition of the human ether a go-go related gene (hERG) K^+ channel using IonWorks patch clamp electrophysiology. 8 Point concentration-response curves were generated on two occasions using 3-fold serial dilutions from the maximum assay concentration (11 uM). Electrophysiological recordings were made from a Chinese Hamster Lung cell line stably expressing the full length hERG channel. Single cell ion currents were measured in the perforated patch clamp configuration (100 ug/mL amphoterocin) at room temperature using an IonWorks Quattro instrument. The internal solution contained 140 mM KCl, 1 mM MgCl2, 1 mM EGTA and 20 mM HEPES and was buffered to pH 7.3. The external solution contained 138 mM NaCl, 2.7 mM KCl, 0.9 mM CaCl2, 0.5 mM MgCl2, 8 mM Na2HPO4 and 1.5 mM KH2PO4, and was buffered to pH 7.3. […] This sequence was repeated 5 times at a frequency of 0.25 Hz. Currents were measured from the tail step at the 5th pulse, and referenced to the holding current. Compounds were incubated for 6-7 min prior to a second measurement of the hERG signal using an identical pulse train. […] A control compound (quinidine) was used (see Table 20 below).

Sequence of human ether a go-go related gene (hERG) K+ channel (Q12809 whole entry): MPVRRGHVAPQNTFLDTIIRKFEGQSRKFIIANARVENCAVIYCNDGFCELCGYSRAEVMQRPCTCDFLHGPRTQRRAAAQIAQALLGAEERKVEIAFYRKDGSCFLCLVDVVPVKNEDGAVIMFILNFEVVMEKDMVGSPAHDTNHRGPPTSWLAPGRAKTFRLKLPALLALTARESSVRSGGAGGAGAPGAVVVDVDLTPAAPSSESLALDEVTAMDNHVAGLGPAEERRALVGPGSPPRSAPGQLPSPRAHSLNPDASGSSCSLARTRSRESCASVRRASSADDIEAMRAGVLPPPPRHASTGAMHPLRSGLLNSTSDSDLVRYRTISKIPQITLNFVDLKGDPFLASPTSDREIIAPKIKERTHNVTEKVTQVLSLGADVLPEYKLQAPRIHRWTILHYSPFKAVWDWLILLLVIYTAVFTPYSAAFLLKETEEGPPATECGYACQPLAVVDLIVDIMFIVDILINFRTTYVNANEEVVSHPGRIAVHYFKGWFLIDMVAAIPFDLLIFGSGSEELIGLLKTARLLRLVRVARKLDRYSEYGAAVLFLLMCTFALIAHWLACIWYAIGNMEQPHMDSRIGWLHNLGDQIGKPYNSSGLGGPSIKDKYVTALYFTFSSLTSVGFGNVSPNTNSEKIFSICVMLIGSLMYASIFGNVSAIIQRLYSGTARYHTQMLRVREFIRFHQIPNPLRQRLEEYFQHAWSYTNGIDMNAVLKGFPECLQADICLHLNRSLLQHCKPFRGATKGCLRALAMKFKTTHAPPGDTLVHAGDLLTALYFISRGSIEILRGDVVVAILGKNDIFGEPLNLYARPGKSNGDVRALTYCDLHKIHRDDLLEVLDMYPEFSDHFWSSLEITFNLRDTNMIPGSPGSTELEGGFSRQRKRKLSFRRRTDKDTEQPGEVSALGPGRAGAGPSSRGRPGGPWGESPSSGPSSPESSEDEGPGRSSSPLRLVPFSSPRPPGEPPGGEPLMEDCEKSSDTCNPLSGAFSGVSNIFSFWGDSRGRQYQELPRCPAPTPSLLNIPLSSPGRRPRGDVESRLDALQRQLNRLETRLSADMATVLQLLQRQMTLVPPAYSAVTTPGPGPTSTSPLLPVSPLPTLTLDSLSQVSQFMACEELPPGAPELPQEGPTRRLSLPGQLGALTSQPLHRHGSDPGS

SMILES | pIC50
Clc1ccc(-n2c(-c3ccncc3)nc3ccncc32)cc1 [Example 2, 4-[3-(4-Chlorophenyl)-3H-imidazo[4,5-c]pyridin-2-yl]pyridine] | < 5.00
Clc1ccc(-n2c(-c3ccc(CN4CCOCC4)nc3)nc3ccncc32)cc1 [Example 3, 4-({5-[3-(4-Chlorophenyl)-3H-imidazo[4,5-c]pyridin-2-yl]pyridin-2-yl}methyl)morpholine] | < 5.00
Clc1ccc(-n2c(-c3cnc(NC4CCOCC4)nc3)nc3ccncc32)cc1 [Example 11, 5-[3-(4-Chlorophenyl)-3H-imidazo[4,5-c]pyridin-2-yl]-N-(oxan-4-yl)pyrimidin-2-amine; bis(trifluoroacetic acid)] | < 5.00
O=C1CN(c2ncc(-c3nc4ccncc4n3-c3ccc(F)cc3)cn2)CCN1 [Example 12, 4-{5-[3-(4-Fluorophenyl)-3H-imidazo[4,5-c]pyridin-2-yl]pyrimidin-2-yl}piperazin-2-one] | < 5.00
O=C1CN(c2ncc(-c3nc4ccncc4n3-c3ccc(Cl)cc3)cn2)CCN1 [Example 13, 4-{5-[3-(4-Chlorophenyl)-3H-imidazo[4,5-c]pyridin-2-yl]pyrimidin-2-yl}piperazin-2-one] | < 5.00
Clc1ccc(-n2c(-c3cnc(N4CCNCC4)o3)nc3ccncc32)cc1 [Example 18, 1-{5-[3-(4-Chlorophenyl)-3H-imidazo[4,5-c]pyridin-2-yl]-1,3-oxazol-2-yl}piperazine dihydrochloride] | < 5.00
Fc1ccc(-n2c(-c3cnc(NC4CCOCC4)nc3)nc3ccncc32)cc1 [Example 20, 5-[3-(4-Fluorophenyl)-3H-imidazo[4,5-c]pyridin-2-yl]-N-(oxan-4-yl)pyrimidin-2-amine] | < 5.00
Cc1cc(N2CCOCC2)ncc1-c1nc2ccncc2n1-c1ccc(F)cc1 [Example 21, 4-{5-[3-(4-Fluorophenyl)-3H-imidazo[4,5-c]pyridin-2-yl]-4-methylpyridin-2-yl}morpholine] | < 5.00
C[C@@H]1CN(c2ncc(-c3nc4ccncc4n3-c3ccc(F)cc3)cn2)C[C@H](C)O1 [Example 23, (2R,6S)-4-{5-[3-(4-Fluorophenyl)-3H-imidazo[4,5-c]pyridin-2-yl]pyrimidin-2-yl}-2,6-dimethylmorpholine] | < 5.00
CC1(C)CN(c2ncc(-c3nc4ccncc4n3-c3ccc(F)cc3)cn2)CCO1 [Example 24, 4-{5-[3-(4-Fluorophenyl)-3H-imidazo[4,5-c]pyridin-2-yl]pyrimidin-2-yl}-2,2-dimethylmorpholine] | < 5.00
Cc1ccc(-n2c(-c3cnc(N4CCOCC4)nc3)nc3ccncc32)c(F)c1 [Example 53, 4-{5-[3-(2-Fluoro-4-methylphenyl)-3H-imidazo[4,5-c]pyridin-2-yl]pyrimidin-2-yl}morpholine] | < 5.00
Fc1ccc(-n2c(-c3ccc(N4CCOCC4)nc3)nc3ccncc32)cc1 [Example 54, 4-{5-[3-(4-Fluorophenyl)-3H-imidazo[4,5-c]pyridin-2-yl]pyridin-2-yl}morpholine] | < 5.00
Cc1ccc(-n2c(-c3cnc(N4CCOCC4)nc3)nc3ccncc32)cc1 [Example 57, 4-{5-[3-(4-Methylphenyl)-3H-imidazo[4,5-c]pyridin-2-yl]pyrimidin-2-yl}morpholine] | < 5.00
Cc1ccc(-n2c(-c3ccc(N4CCOCC4)nc3)nc3ccncc32)cc1 [Example 63, 4-{5-[3-(4-Methylphenyl)-3H-imidazo[4,5-c]pyridin-2-yl]pyridin-2-yl}morpholine] | < 5.00
Cc1ccc(-n2c(-c3ccc(N4CCOCC4)nc3)nc3ccncc32)cn1 [Example 64, 4-{5-[3-(6-Methylpyridin-3-yl)-3H-imidazo[4,5-c]pyridin-2-yl]pyridin-2-yl}morpholine] | < 5.00
CN(C)c1ccc(-c2nc3ccncc3n2-c2ccc(F)cc2)cn1 [Example 71, 5-[3-(4-Fluorophenyl)-3H-imidazo[4,5-c]pyridin-2-yl]-N,N-dimethylpyridin-2-amine] | < 5.00
Fc1cc(Cl)ccc1-n1c(-c2cnc(N3CCOCC3)nc2)nc2ccncc21 [Example 77, 4-{5-[3-(4-Chloro-2-fluorophenyl)-3H-imidazo[4,5-c]pyridin-2-yl]pyrimidin-2-yl}morpholine] | < 5.00
Fc1cc(Cl)ccc1-n1c(-c2ccc(N3CCOCC3)nc2)nc2ccncc21 [Example 80, 4-{5-[3-(4-Chloro-2-fluorophenyl)-3H-imidazo[4,5-c]pyridin-2-yl]pyridin-2-yl}morpholine] | < 5.00
NC(=O)NC1CCN(c2ccc(-c3nc4ccncc4n3-c3ccc(Cl)cc3)cn2)CC1 [Example 91, (1-{5-[3-(4-Chlorophenyl)-3H-imidazo[4,5-c]pyridin-2-yl]pyridin-2-yl}piperidin-4-yl)urea; bis(trifluoroacetic acid)] | < 5.00
c1ccc(-n2c(-c3cnc(N4CCOCC4)nc3)nc3ccncc32)cc1 [Example 95, 4-(5-{3-Phenyl-3H-imidazo[4,5-c]pyridin-2-yl}pyrimidin-2-yl)morpholine] | < 5.00
Fc1ccc(-n2c(-c3cnc(N4CCOCC4)c(F)c3)nc3ccncc32)cc1 [Example 98, 4-{3-Fluoro-5-[3-(4-fluorophenyl)-3H-imidazo[4,5-c]pyridin-2-yl]pyridin-2-yl}morpholine] | < 5.00
Nc1ccc(-c2nc3ccncc3n2-c2ccc(Cl)cc2)cn1 [Example 110, 5-[3-(4-Chlorophenyl)-3H-imidazo[4,5-c]pyridin-2-yl]pyridin-2-amine] | < 5.00
COCCN(C)c1ncc(-c2nc3ccncc3n2-c2ccc(C)cc2)cn1 [Example 117, N-(2-Methoxyethyl)-N-methyl-5-[3-(4-methylphenyl)-3H-imidazo[4,5-c]pyridin-2-yl]pyrimidin-2-amine] | < 5.00

molecular target: purified recombinantly expressed human SSAO (Homo sapiens (Human), UniProt Q16853); experiment: SSAO enzyme inhibition assay (HRP-coupled hydrogen peroxide detection or 14C-benzaldehyde detection, benzylamine substrate); format: biochemical; conditions: SSAO inhibitory activity, human recombinant SSAO, RT
Protocol: All primary assays were performed at RT. with purified recombinantly expressed human SSAO. Enzyme was prepared essentially as described in Öhman et al. (Protein Expression and Purification 46 (2006) 321-331). In addition, secondary- and selectivity assays were performed using SSAO prepared from various tissues or purified rat recombinant SSAO. The enzyme activity was assayed with benzylamine as substrate by measuring either benzaldehyde production, using ^14C-labeled substrate, or by utilizing the production of hydrogen peroxide in a horseradish peroxidase (HRP) coupled reaction. Briefly, test compounds were dissolved in dimethyl sulfoxide (DMSO) to a concentration of 10 mM. Dose-response measurements were assayed by either creating 1:10 serial dilutions in DMSO to produce a 7 point curve or by making 1:3 serial dilutions in DMSO to produce 11 point curves.
In a horseradish peroxidase (HRP) coupled reaction, hydrogen peroxide oxidation of 10-acetyl-3,7-dihydroxyphenoxazine produced resorufin, which is a highly fluorescent compound (Zhout and Panchuk-Voloshina. Analytical Biochemistry 253 (1997) 169-174; Amplex® Red Hydrogen Peroxide/peroxidase Assay kit, Invitrogen A22188). Enzyme and compounds in 50 mM sodium phosphate, pH 7.4 were set to pre-incubate in flat-bottomed microtiter plates for approximately 15 min before initiating the reaction by addition of a mixture of HRP, benzylamine and Amplex reagent. Benzylamine concentration was fixed at a concentration corresponding to the Michaelis constant, determined using standard procedures. Fluorescence intensity was then measured at several time points during 1-2 h, exciting at 544 nm and reading the emission at 590 nm. For the human SSAO assay final concentrations of the reagents in the assay wells were: SSAO enzyme 1 ug/ml, benzylamine 100 uM, Amplex reagent 20 uM, HRP 0.1 U/mL and varying concentrations of test compound. The inhibition was measured as % decrease of the signal compared to a control without inhibitor (only diluted DMSO). The background signal from a sample containing no SSAO enzyme was subtracted from all data points. Data was fitted to a four parameter logistic model and IC50 values were calculated using the GraphPad Prism 4 or XLfit 4 programs.
SSAO activity was assayed using 14C-labeled benzylamine and analysed by measuring radioactive benzaldehyde. In a white 96-well optiplate (Packard), 20 uL of diluted test compound was pre-incubated at room temperature with 20 uL SSAO enzyme for approximately 15 min with continuous agitation. All dilutions were made with PBS. The reaction was initiated by adding 20 uL of the benzylamine substrate solution containing [7-14C] Benzylamine hydrochloride (CFA589, GE Healthcare). The plate was incubated for 1 h as above after which the reaction was stopped by acidification (10 uL 1M aq HCl). Then 90 uL Micro Scint-E solution (Perkin-Elmer) was added to each well and the plate was continuously mixed for 15 min. Phase separation occurred instantly and activity was read in a Topcount scintillation counter (Perkin-Elmer). In the final reaction well, the human recombinant SSAO concentration was 10 ug/ml. In order to optimize sensitivity, the substrate concentration was decreased as compared to the HRP coupled assay in order to get a higher fraction of radioactive product. In the human SSAO assay, benzylamine concentration was 40 uM (0.2 uCi/mL). Data was analysed as above.

Sequence of purified recombinantly expressed human SSAO (Q16853 29-763): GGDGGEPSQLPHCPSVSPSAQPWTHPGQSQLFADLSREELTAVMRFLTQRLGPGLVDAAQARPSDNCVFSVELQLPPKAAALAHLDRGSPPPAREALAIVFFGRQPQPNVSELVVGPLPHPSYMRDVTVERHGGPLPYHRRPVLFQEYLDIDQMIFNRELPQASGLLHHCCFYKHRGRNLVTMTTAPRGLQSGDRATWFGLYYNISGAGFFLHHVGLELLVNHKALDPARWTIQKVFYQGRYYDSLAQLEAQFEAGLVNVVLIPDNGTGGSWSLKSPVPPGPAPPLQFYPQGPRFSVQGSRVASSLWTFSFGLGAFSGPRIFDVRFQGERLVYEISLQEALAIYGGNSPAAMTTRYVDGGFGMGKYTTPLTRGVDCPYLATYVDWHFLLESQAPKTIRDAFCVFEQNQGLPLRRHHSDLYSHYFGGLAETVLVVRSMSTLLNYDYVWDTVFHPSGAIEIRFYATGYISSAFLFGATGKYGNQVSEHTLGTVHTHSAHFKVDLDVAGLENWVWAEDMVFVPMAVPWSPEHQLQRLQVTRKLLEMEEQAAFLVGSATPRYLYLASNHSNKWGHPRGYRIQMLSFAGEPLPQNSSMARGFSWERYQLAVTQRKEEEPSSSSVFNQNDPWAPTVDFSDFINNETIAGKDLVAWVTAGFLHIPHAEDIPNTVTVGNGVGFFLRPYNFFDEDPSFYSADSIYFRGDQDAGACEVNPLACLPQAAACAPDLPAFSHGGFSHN

pIC50 | SMILES
> 7.30 | Clc1ccc(-n2c(-c3cnc(NC4CCOCC4)nc3)nc3ccncc32)cc1 [Example 11, 5-[3-(4-Chlorophenyl)-3H-imidazo[4,5-c]pyridin-2-yl]-N-(oxan-4-yl)pyrimidin-2-amine; bis(trifluoroacetic acid)]
> 7.30 | O=C1CN(c2ncc(-c3nc4ccncc4n3-c3ccc(Cl)cc3)cn2)CCN1 [Example 13, 4-{5-[3-(4-Chlorophenyl)-3H-imidazo[4,5-c]pyridin-2-yl]pyrimidin-2-yl}piperazin-2-one]
> 7.30 | Cc1cc(N2CCOCC2)ncc1-c1nc2ccncc2n1-c1ccc(F)cc1 [Example 21, 4-{5-[3-(4-Fluorophenyl)-3H-imidazo[4,5-c]pyridin-2-yl]-4-methylpyridin-2-yl}morpholine]
> 7.30 | C[C@@H]1CN(c2ncc(-c3nc4ccncc4n3-c3ccc(F)cc3)cn2)C[C@H](C)O1 [Example 23, (2R,6S)-4-{5-[3-(4-Fluorophenyl)-3H-imidazo[4,5-c]pyridin-2-yl]pyrimidin-2-yl}-2,6-dimethylmorpholine]
> 7.30 | CC1(C)CN(c2ncc(-c3nc4ccncc4n3-c3ccc(F)cc3)cn2)CCO1 [Example 24, 4-{5-[3-(4-Fluorophenyl)-3H-imidazo[4,5-c]pyridin-2-yl]pyrimidin-2-yl}-2,2-dimethylmorpholine]
> 7.30 | Cn1c(-c2cc3ccncc3n2-c2ccc(Cl)cc2)cccc1=O [Example 145, 6-[1-(4-Chlorophenyl)-1H-pyrrolo[2,3-c]pyridin-2-yl]-1-methyl-1,2-dihydropyridin-2-one]
> 7.30 | Nc1cc(-c2cc3ccncc3n2-c2ccc(Cl)cc2)ccn1 [Example 147, 4-[1-(4-Chlorophenyl)-1H-pyrrolo[2,3-c]pyridin-2-yl]pyridin-2-amine]
> 7.30 | Fc1cncc(-c2cc3ccncc3n2-c2ccc(Cl)cc2)c1 [Example 148, 3-[1-(4-Chlorophenyl)-1H-pyrrolo[2,3-c]pyridin-2-yl]-5-fluoropyridine]
> 7.30 | Clc1ccc(-n2c(-c3cnc(NCC4CC4)nc3)cc3ccncc32)cc1 [Example 149, 5-[1-(4-Chlorophenyl)-1H-pyrrolo[2,3-c]pyridin-2-yl]-N-(cyclopropylmethyl)pyrimidin-2-amine]
> 7.30 | Cc1cnccc1-c1cc2ccncc2n1-c1ccc(Cl)cc1 [Example 154, 4-[1-(4-Chlorophenyl)-1H-pyrrolo[2,3-c]pyridin-2-yl]-3-methylpyridine]
5.92 to 6.70 | O=c1cc(-c2cc3ccncc3n2-c2ccccc2)ccn1C1CC1 [Example 155, 1-Cyclopropyl-4-{1-phenyl-1H-pyrrolo[2,3-c]pyridin-2-yl}-1,2-dihydropyridin-2-one]
